In doi:10.1101/2020.03.08.982454v1 (biorxiv, 2020):

Tests used:
KMP-11 [1] = biological target: KMP-11 (Leishmania donovani, UniProt Q36736, Y48W); experiment: biochemical
KMP-11 [2] = biological target: KMP-11 (Leishmania donovani, UniProt Q36736, Y89W); experiment: biochemical
KMP-11 [3] = biological target: KMP-11 (Leishmania donovani, UniProt Q36736, Y5W); experiment: biochemical
KMP-11 [4] = biological target: KMP-11 (Leishmania donovani, UniProt Q36736, F62W); experiment: biochemical
KMP-11 [5] = biological target: T1, KMP-11 (Leishmania donovani, UniProt Q36736); experiment: DiI C-18 fluorescence quenching, Hill fit; type: binding
T1 sequence (Q36736 1-92): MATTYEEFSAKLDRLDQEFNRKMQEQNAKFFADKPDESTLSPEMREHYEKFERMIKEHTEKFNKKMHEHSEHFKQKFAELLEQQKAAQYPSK

CCCCCCCCCCCCCCCC(=O)OC[C@H](COP(=O)([O-])OCC[N+](C)(C)C)OC(=O)CCCCCCCCCCCCCCC [DPPC]
Kd (KMP-11 [1]): 118 nM | Kd (KMP-11 [2]): 161 nM | Kd (KMP-11 [3]): 19.4 nM | Kd (KMP-11 [4]): 3800 nM | Kd (KMP-11 [5]): 286 nM
